The target of this assay is T1, P. gingivalis glutaminyl cyclase (PgQC) (Porphyromonas gingivalis, UniProt Q7MT37).
T1 construct: gene PG_2157; Recombinant P. gingivalis glutaminyl cyclase
The experiment in a line: fluorogenic enzyme assay with H-Gln-AMC, recombinant purified PgQC ([…]), fit to competitive inhibition. The assay is classed as biochemical.

One may read the Ki as the dissociation constant of the complex between target and ligand, obtained from inhibition or displacement.

T1 sequence (Q7MT37 entry or part of it): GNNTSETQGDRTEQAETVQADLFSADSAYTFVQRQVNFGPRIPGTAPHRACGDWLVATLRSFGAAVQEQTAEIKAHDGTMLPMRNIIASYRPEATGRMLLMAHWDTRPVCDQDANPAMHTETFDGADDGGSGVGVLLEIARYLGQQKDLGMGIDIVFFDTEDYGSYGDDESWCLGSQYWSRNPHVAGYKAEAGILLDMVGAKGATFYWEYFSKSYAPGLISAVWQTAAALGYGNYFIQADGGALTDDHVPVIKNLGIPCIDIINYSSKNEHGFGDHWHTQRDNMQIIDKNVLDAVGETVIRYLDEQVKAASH

On to `N=C(N)NCCOc1ccc(CNc2cnc3nc[nH]c3c2)cc1` [S-0636, 1-(2-(4-((lmidazo[4,5-b]pyridin-6-ylamino)methyl)-phenoxy)ethyl)guanidine], for which the Ki is 0.014 µM.

Values taken from publication PMC13021670, “Novel small molecule targeting PgQC reduces Porphyromonas gingivalis virulence” (Frontiers in Oral Health, 2026).
